# Test results reported in US6720424B1, “Aminobenzoic acid derivatives” (Taisho Pharmaceutical Co., Ltd., priority 1999, dated 2004).
# Read-outs that look alike come from different tables or passages of the source.
# Experiments:
# [1] = target: T1, KDR (Homo sapiens, UniProt P35968); assay: (125I)-VEGF binding inhibition on NIH3T3 cells in which KDR was forced to be expressed; settings: KDR-expressing NIH3T3 cells, (125I)-VEGF 25 pM, 90 minutes, read-out: IC50 (concentration of 50% binding inhibition)
# T1 construct: expressed in transfected cells; host or cells: NIH3T3
# T1 sequence (P35968 20-1356): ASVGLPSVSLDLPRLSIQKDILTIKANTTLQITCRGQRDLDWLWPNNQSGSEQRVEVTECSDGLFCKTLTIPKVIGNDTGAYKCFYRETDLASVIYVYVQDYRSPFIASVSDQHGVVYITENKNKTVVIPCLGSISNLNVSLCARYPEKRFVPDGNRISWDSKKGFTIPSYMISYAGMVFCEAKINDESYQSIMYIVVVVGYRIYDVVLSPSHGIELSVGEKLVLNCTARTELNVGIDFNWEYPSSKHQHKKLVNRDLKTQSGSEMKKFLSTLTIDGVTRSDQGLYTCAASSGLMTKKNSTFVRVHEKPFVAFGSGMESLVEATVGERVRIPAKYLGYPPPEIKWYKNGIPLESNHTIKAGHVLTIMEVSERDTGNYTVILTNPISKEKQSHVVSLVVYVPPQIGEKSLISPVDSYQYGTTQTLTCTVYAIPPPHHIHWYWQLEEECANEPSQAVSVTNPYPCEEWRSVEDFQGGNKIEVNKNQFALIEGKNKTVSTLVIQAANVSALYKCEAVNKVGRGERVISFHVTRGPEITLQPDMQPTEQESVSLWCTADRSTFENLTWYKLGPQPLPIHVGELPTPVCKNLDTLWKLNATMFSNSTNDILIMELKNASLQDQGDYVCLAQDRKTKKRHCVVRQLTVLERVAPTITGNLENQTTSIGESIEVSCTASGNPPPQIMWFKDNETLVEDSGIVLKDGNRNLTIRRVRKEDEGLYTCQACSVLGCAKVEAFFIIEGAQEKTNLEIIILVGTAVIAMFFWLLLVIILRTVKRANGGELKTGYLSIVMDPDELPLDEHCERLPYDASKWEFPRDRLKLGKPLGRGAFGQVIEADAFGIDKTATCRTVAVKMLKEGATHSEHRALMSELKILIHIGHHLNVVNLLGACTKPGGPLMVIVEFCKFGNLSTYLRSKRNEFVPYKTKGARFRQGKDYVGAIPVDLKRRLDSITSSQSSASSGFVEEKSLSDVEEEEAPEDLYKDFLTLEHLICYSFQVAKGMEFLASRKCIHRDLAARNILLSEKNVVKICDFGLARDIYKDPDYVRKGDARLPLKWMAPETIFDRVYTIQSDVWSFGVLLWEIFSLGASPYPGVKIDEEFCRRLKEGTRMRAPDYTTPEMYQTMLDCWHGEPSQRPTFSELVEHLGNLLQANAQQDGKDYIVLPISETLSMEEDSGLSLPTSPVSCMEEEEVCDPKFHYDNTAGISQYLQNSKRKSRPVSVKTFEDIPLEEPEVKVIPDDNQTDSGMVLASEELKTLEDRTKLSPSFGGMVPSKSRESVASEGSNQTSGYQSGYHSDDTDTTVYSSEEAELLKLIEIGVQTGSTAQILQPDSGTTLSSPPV
# Description: According to the method described in a document (Cell Growth & Differentiation, vol. 7, pp. 213-221, 1996), the following tests were carried out.
# NIH3T3 cells in which Flt-1 was forced to be expressed were seeded on a 24-well collagen-coated plate (7×10^4/well), and were cultured in Dulbecco's modified Eagle's medium (DMEM) including 10% bovine serum and 200 μg/ml of Geneticin G418, for 24 hours at 37° C. under an atmosphere of 5% carbon dioxide gas. The cells were preincubated in Buffer A (including 10 mM HEPES (N-2-hydroxyethylpiperazine-N′-2-ethanesulfonic acid) and 0.1% BSA (bovine serum albumin) in DMEM), for 30 minutes at 4° C. Subsequently, the medium was replaced with Buffer B (including 10 mM HEPES and 0.5% BSA in DMEM). A test solution prepared by dissolving each of the test compounds shown in Table 19 in dimethylsulfoxide and subsequently diluting the solution into a prescribed concentration with Buffer B, and (^125I)-VEGF (the final concentration was set to 25 pM) were added thereto. Binding reaction was carried out for 90 minutes at […]. After completion of the reaction, the cells were washed three times with ice-cooled Buffer A. Subsequently, 0.5 ml of 0.5M NaOH were added to each well, and the cells were lysed in 30 minutes at room temperature. The radioactivity of the lysed cells in each well was measured by means of a gamma counter, and a total binding quantity of (^125I)-VEGF was calculated. Nonspecific binding quantity of (^125I)-VEGF was measured by competition assay in the presence of 10 nM non-labeled VEGF. The specific binding quantity of (^125I)-VEGF was calculated from the difference between the total binding quantity of (^125I)-VEGF and nonspecific binding quantity of (^125I)-VEGF.
# The binding inhibition index of the test compounds was calculated by the following equation. [formula]
# From this value, a concentration of 50% binding inhibition (IC50) of the test compound was calculated.
# Test on each of the test compounds shown in Table 20 and Table 21 was carried out employing NIH3T3 cells in which KDR was forced to be expressed, in the same manner as described in Experimental Example 1 described above.
SMILES,melting point,IC50 ([1]; Table 21),IC50 ([1]; Table 20)
CCCCCCCCCCCCCCCCCCOc1ccc(CCC(=O)Nc2ccc(SC)c(C(=O)O)c2)cc1OC [Compound 119],174 to 176 °C,290 nM,–
CCCCCCCCCCCCCCCCCCOc1ccc(CCC(=O)N(CC(=O)O)c2ccc(SC)c(C(=O)OC)c2)cc1 [Compound 102],102 to 106 °C,–,–
CCCCCCCCCCCCCCCCCCOc1ccc(CCC(=O)Nc2ccc(SC)c(C(=O)O)c2)cc1 [Compound 115],185 to 194 °C,150 nM,–
CCCCCCCCCCCCCCCCOc1ccc(CC(=O)Nc2ccc(SC)c(C(=O)O)c2)cc1 [Compound 127],200 to 205 °C,1160 nM,–
CCCCCCCCCCCCCCCCCCOc1ccc(CC(=O)Nc2ccc(SC)c(C(=O)O)c2)cc1 [Compound 116],200 to 204 °C,160 nM,–
CCCCCCCCCCCCCCCCCC(=O)Nc1ccc(CCC(=O)Nc2ccc(SC)c(C(=O)O)c2)cc1 [Compound 120],257 to 260 °C,440 nM,–
CCCCCCCCCCNC(=O)[C@H](CC(=O)O)NC(=O)CCCOc1ccc(CCC(=O)Nc2ccc(SC)c(C(=O)OC)c2)cc1 [Compound 105],165 to 167 °C,–,–
CCCCCCCCCCCCCCCCCCOc1ccc(CCC(=O)Nc2ccc([S+](C)[O-])c(C(=O)OC)c2)cc1 (centres unmarked) [Compound 106],65 to 67 °C,–,–
CCCCCCCCCCCCCCCCCCOc1ccc(CC(=O)N(C)c2ccc(SC)c(C(=O)OC)c2)cc1 [Compound 91],60 to 69 °C,–,–
CCCCCCCCCCCCCCCCCCCCCCOc1ccc(CCC(=O)Nc2ccc(SC)c(C(=O)O)c2)cc1 [Compound 118],209 to 212 °C,1580 nM,–
CCCCCCCCCCCCCCCCCCOc1ccc(CCC(=O)Nc2ccc(Nc3ccccc3C(=O)O)c(C(=O)O)c2)cc1 [Compound 47],247 to 252 °C,–,940 nM
CCCCCCCCCCCCCCCCCCOc1ccc(CCC(=O)Nc2ccc(Oc3ccc(/C=C/C(=O)O)cc3)c(C(=O)O)c2)cc1 [Compound 34],200 to 208 °C,–,340 nM
CCCCCCCCCCCCCCCCCCOc1ccc(CC(=O)N(C)c2ccc(SCCO)c(C(=O)OC)c2)cc1 [Compound 109],92.5 to 94 °C,–,–
CCCCCCCCCCCCCCCCCC(=O)Nc1ccc(CC(=O)Nc2ccc(SC)c(C(=O)O)c2)cc1 [Compound 130],214 to 217 °C,230 nM,–
CCCCCCCCCCCCCCCCCCCCOc1ccc(CCC(=O)Nc2ccc(SC)c(C(=O)O)c2)cc1 [Compound 117],211 to 213 °C,320 nM,–
CCCCCCCCCCCCCCCCCCOc1ccc(CCC(=O)N(C)c2ccc(Oc3ccc(C(=O)OC)cc3)c(C(=O)OC)c2)cc1 [Compound 22],60 to 62 °C,–,–
CCCCCCCCCCCCCCCCCCOc1ccc(CCC(=O)Nc2ccc(Oc3ccccc3C(=O)O)c(C(=O)O)c2)cc1 [Compound 29],184 to 186 °C,–,1190 nM
CCCCCCCCCCCCCCCCCCOc1ccc(CCC(=O)Nc2ccc(Nc3cccc(C(=O)O)c3)c(C(=O)O)c2)cc1 [Compound 46],235 to 240 °C,–,400 nM
CCCCCCCCCCCCCCCCCCOc1ccc(CCC(=O)Nc2ccc(Oc3ccc4cc(C(=O)O)ccc4c3)c(C(=O)O)c2)cc1 [Compound 35],215 to 225 °C,–,200 nM
CCCCCCCCCCCCCCCCCCOc1ccc(CCC(=O)Nc2ccc(Oc3ccc(CC(=O)O)cc3)c(C(=O)O)c2)cc1 [Compound 31],170 to 173 °C,–,1230 nM
CCCCCCCCCCCCCCCCCCOc1ccc(CCC(=O)N(C)c2ccc(SC)c(C(=O)OC)c2)cc1 [Compound 90],65.5 to 66.5 °C,–,–
CCCCCCCCCCCCCCCCCCOc1ccc(CCC(=O)Nc2ccc(Oc3cccc(CC(=O)O)c3)c(C(=O)O)c2)cc1 [Compound 32],163 to 167 °C,–,930 nM
CCCCCCCCCCCCCCCCCCOc1ccc(CCC(=O)Nc2ccc(Sc3ccc(C(=O)O)cc3)c(C(=O)O)c2)cc1 [Compound 41],198 to 203 °C,–,370 nM
CCCCCCCCCCCCCCCCCCOc1ccc(CCC(=O)Nc2ccc(Sc3ccc(C(=O)O)cn3)c(C(=O)O)c2)cc1 [Compound 44],221 to 223 °C,–,910 nM
CCCCCCCCCCCCCCCCCCOc1ccc(CCC(=O)Nc2cc(C(=O)O)ccc2Oc2cccc(C(=O)O)c2)cc1 [Compound 36],212 to 216 °C,–,1270 nM
CCCCCCCCCCCCCCCCCCOc1ccc(CCC(=O)Nc2ccc(Nc3ccc(C(=O)O)cc3)c(C(=O)O)c2)cc1 [Compound 45],230 to 235 °C,–,760 nM
CCCCCCCCCCCCCCCCCCOc1ccc(CCC(=O)Nc2ccc(Sc3cccc(C(=O)O)c3)c(C(=O)O)c2)cc1 [Compound 42],194 to 198 °C,–,450 nM

# The remaining lines, values ahead:
melting point,IC50 ([1]; Table 21),IC50 ([1]; Table 20),SMILES
87 to 88.5 °C,500 nM,–,CCCCCCCCCCCCCCCCCCOc1ccc(CC(=O)N(C)c2ccc(SCC)c(C(=O)O)c2)cc1 [Compound 154]
156 to 157 °C,250 nM,–,CCCCCCCCCCCCCCCCCCOc1ccc(C=CC(=O)N(C)c2ccc(SC)c(C(=O)O)c2)cc1 [Compound 153]
151 to 158 °C,570 nM,–,CCCCCCCCCCCCCCCCCCNc1ccc(CCC(=O)Nc2ccc(SC)c(C(=O)O)c2)cc1 [Compound 164]
185 to 188 °C,460 nM,–,CCCCCCCCCCOc1ccc(OCCCCCCCCCC(=O)Nc2ccc(SC)c(C(=O)O)c2)cc1 [Compound 137]
150 to 152 °C,570 nM,–,CCCCCCCCCCCCCCCCCCOc1ccc(CCC(=O)Nc2cc(C(=O)O)ccc2SCCC)cc1 [Compound 147]
163.5 to 169.5 °C,410 nM,–,CCCCCCCCCCCCCCCCCCOc1ccc(NCC(=O)Nc2ccc(SC)c(C(=O)O)c2)cc1 [Compound 163]
197 to 202 °C,120 nM,–,CCCCCCCCCCCCCCCCOc1ccc(OCCCC(=O)Nc2ccc(SC)c(C(=O)O)c2)cc1 [Compound 134]
127 to 129 °C,800 nM,–,CCCCCCCCCCCCCCCCCCOc1ccc(CCC(=O)N(Cc2ccccc2)c2ccc(SC)c(C(=O)O)c2)cc1 [Compound 151]
114 to 117.5 °C,1300 nM,–,CCCCCCCCCCCCCCCCCCOc1ccc(CC(=O)N(C)c2ccc(SCCO)c(C(=O)O)c2)cc1 [Compound 161]
247 to 250 °C,1660 nM,–,CCCCCCCCCCCCCCCCCC(=O)Nc1ccccc1CC(=O)Nc1ccc(SC)c(C(=O)O)c1 [Compound 132]
193 to 196 °C,400 nM,–,CCCCCCCCCCCCOc1ccc(OCCCCCCCC(=O)Nc2ccc(SC)c(C(=O)O)c2)cc1 [Compound 136]
224 to 228 °C,310 nM,–,CCCCCCCCCCCCCCCCCC(=O)Nc1cccc(CC(=O)Nc2ccc(SC)c(C(=O)O)c2)c1 [Compound 131]
174 to 177 °C,630 nM,–,CCCCCCCCCCCCCCCCCCOc1ccc(CCC(=O)Nc2cc(C(=O)O)ccc2SCC)cc1 [Compound 146]
149 to 153 °C,760 nM,–,CCCCCCCCCCCCCCCCCCOc1ccc(CC(=O)Nc2ccc(SCC)c(C(=O)O)c2)cc1 [Compound 143]
104.5 to 106.5 °C,1160 nM,–,CCCCCCCCCCCCCCCCCCOc1ccc(CC(=O)N(C)c2ccc(SCCCO)c(C(=O)O)c2)cc1 [Compound 162]
180 to 185 °C,430 nM,–,CCCCCCCCOc1ccc(OCCCCCCCCCCCC(=O)Nc2ccc(SC)c(C(=O)O)c2)cc1 [Compound 138]
108 to 110 °C,140 nM,–,CCCCCCCCCCCCCCCCCCOc1ccc(CCC(=O)N(CC)c2ccc(SC)c(C(=O)O)c2)cc1 [Compound 149]
165 to 169 °C,160 nM,–,CCCCCCCCCCCCCCCCCCOc1ccc(OCC(=O)Nc2ccc(SC)c(C(=O)O)c2)cc1 [Compound 133]
216 to 219 °C,1290 nM,–,CCCCCCCCCCCCCCCCCCOc1ccc(CCC(=O)Nc2cc(C(=O)O)ccc2SC)cc1 [Compound 145]
126 to 128 °C,590 nM,–,CCCCCCCCCCCCCCCCCCOc1ccc(CCC(=O)N(CC2CC2)c2ccc(SC)c(C(=O)O)c2)cc1 [Compound 150]
199 to 202 °C,450 nM,–,CCCCCCCCCCCCCCOc1ccc(OCCCCCC(=O)Nc2ccc(SC)c(C(=O)O)c2)cc1 [Compound 135]
